Results published in US8183263B2 (priority 2007, dated 2012).

What follows are compounds tested on HCV replicon (assay: HCV replicon replication assay (NPT level by captured ELISA)). Settings: Hepatitis C virus, 72 h; Huh-7 HCV replicon-containing cells, three days incubation; read-out: Activity (inhibition of HCV replicon replication).
Type: cell-based
Method: Compounds claimed herein are tested for the ability to inhibit viral replication of the Hepatitis C replicon in cultured cells in which the HCV replicon construct has been incorporated. The HCV replicon system was described by Bartenschlager, et. al (Science, 285, pp. 110-113 (1999)). The replicon system is predictive of in vivo anti-HCV activity; compounds that are active in humans uniformly evidence activity in the replicon assay.
In this assay HCV replicon containing cells are treated with different concentrations of the test compound to ascertain the ability of the test compound to suppress replication of the HCV replicon. As a positive control, HCV replicon-containing cells are treated with different concentrations of interferon alpha, a known inhibitor of HCV replication. The replicon assay system includes Neomycin Phosphotransferase (NPT) as a component of the replicon itself in order to detect the transcription of replicon gene products in the host cell. Cells in which the HCV replicon is actively replicating have high levels of NPT; the level of NPT is proportional to HCV replication. […] The NPT level of each sample is measured using a captured ELISA.
A protocol for testing compounds for the ability to inhibit viral replication of the Hepatitis C replicon cultured cells in which the replicon construct has been incorporated, follows.
The HCV replicon contains, 5′-3′, the HCV-IRES, the neomycin phosphotransferase (neo) gene, the IRES of encephalomyocarditis virus, which directs translation of HCV sequences NS3 to NS5B, and the 3′-NTR. The sequence of the HCV replicon has been deposited in GenBank (Accession no. AJ242652).
The replicon is transfected into Huh-7 cells using standard methods such as electroporation.
The equipment and materials include, but are not limited to, Huh-7 HCV replicon-containing cells, maintenance media (DMEM (Dulbecco's modified Eagle media) supplemented with 10% FBS, L-glutamine, non-essential amino acids, penicillin (100 units/ml), streptomycin (100 micrograms/ml), and 500 micrograms/ml of Geneticin (G418), screening media (DMEM supplemented with 10% FBS, L-glutamine, non-essential amino acids, penicillin (100 units/ml) and streptomycin (100 micrograms/ml)), 96 well tissue culture plates (flat bottom), 96 well plates (U bottom for drug dilution), Interferon alpha for positive control, fixation reagent (such as methanol: acetone), primary antibody (rabbit anti-NPTII), secondary antibody: Eu—N1 1, and enhancement solution.
HCV replicon-containing cells are rinsed with once PBS once; 2 mls of trypsin are then added. Cells are incubated at 37° C. in a 5% CO2 incubator for 3-5 minutes. 10 mls of complete medium is added to stop the reaction. Cells are blown gently, put into a 15 ml tube, and spun at 1200 rpm for four minutes. The trypsin/medium solution is removed and 5 mls of medium (500 ml DMEM (high glucose)) from BRL catalog #12430-054; 50 mls 10% FBS, 5% Geneticin G418 (50 mg/ml, BRL catalog #10131-035), 5 ml MEM non-essential amino acids (100×BRL #11140-050) and 5 ml pen-strep (BRL #15140-148) is added. The cells and media are mixed carefully
Cells are plated with screening medium (500 ml DMEM (BRL #21063-029), 50 ml FBS (BRL #10082-147) and 5 ml MEM non-essential amino acid (BRL #11140-050) at 6000-7500 cells/100 μl/well of 96 well plate (6-7.5×10^5 cells/10 ml/plate). Plates are placed into 37° C. 5% CO2 incubator overnight.
The following morning, drugs (test compounds or interferon alpha) are diluted in 96 well U bottom plates with media or DMSO/media, depending on the final concentration chosen for screening. Generally for 6 concentrations of each test compounds ranging from 10 micromolar to 0.03 micromolar are applied. 100 μl of the test compound dilution is placed in wells of the 96 well plate containing the HCV replicon cells. Media without drug is added to some wells as a negative controls. DMSO is known to affect cell growth. […]

Row | SMILES | EC50 [µM]
1 | CCc1ccc(Oc2ccc(Nc3nc(-c4cnc(OC)nc4)cs3)cc2C(C)=O)cc1 [Cmp 87, 1-(2-(4-ethylphenoxy)-5-(4-(2-methoxypyrimidin-5-yl)thiazol-2-ylamino)phenyl)ethanone] | < 1
2 | CCCCCCCCOc1cc(Nc2nc(-c3cnc(OC)nc3)c(F)s2)ccc1C(F)(F)F [Cmp 88, 5-fluoro-4-(2-methoxypyrimidin-5-yl)-N-(3-(octyloxy)-4-(trifluoromethyl)phenyl)thiazol-2-amine] | < 1
3 | CN(C)c1ccc(CCCCOc2ccc(Nc3nc(-c4cccnc4)cs3)cc2C(F)(F)F)cc1 [Cmp 89, N-(4-(4-(4-(dimethylamino)phenyl)butoxy)-3-(trifluoromethyl)phenyl)-4-(pyridin-3-yl)thiazol-2-amine] | < 1
4 | Fc1sc(Nc2ccc(OCCCCc3cccs3)c(C(F)(F)F)c2)nc1-c1cccnc1 [Cmp 90, 5-fluoro-4-(pyridin-3-yl)-N-(4-(4-(thiophen-2-yl)butoxy)-3-(trifluoromethyl)phenyl)thiazol-2-amine] | < 1
5 | Cc1cccc(OCCCc2ccc(Nc3nc(-c4cccnc4)cs3)cc2C(F)(F)F)c1 [Cmp 91, 4-(pyridin-3-yl)-N-(4-(3-(m-tolyloxy)propyl)-3-(trifluoromethyl)phenyl)thiazol-2-amine] | < 1
6 | Cc1cccc(OCCCc2ccc(Nc3nc(-c4cccnc4)c(F)s3)cc2C(F)(F)F)c1 [Cmp 92, 5-fluoro-4-(pyridin-3-yl)-N-(4-(3-(m-tolyloxy)propyl)-3-(trifluoromethyl)phenyl)thiazol-2-amine] | < 1
7 | CCCCCCCc1nc2cc(Nc3nc(-c4cccnc4)c(F)s3)ccc2o1 [Cmp 93, N-(5-fluoro-4-(pyridin-3-yl)thiazol-2-yl)-2-heptylbenzo[d]oxazol-5-amine] | < 1
8 | CCCCCCCCc1c(F)cc(Nc2nc(-c3cccnc3)cs2)cc1F [Cmp 94, N-(3,5-difluoro-4-octylphenyl)-4-(pyridin-3-yl)thiazol-2-amine] | < 1
9 | COc1ncc(-c2nc(Nc3ccc(Oc4ccccc4)c(C(F)(F)F)c3)sc2F)cn1 [Cmp 95, 5-fluoro-4-(2-methoxypyrimidin-5-yl)-N-(4-phenoxy-3-(trifluoromethyl)phenyl)thiazol-2-amine] | 1 to 10
10 | COc1ncc(-c2nc(Nc3ccc(Oc4ccc(C#N)cc4)c(C(F)(F)F)c3)sc2F)cn1 [Cmp 96, 4-(4-(5-fluoro-4-(2-methoxypyrimidin-5-yl)thiazol-2-ylamino)-2-(trifluoromethyl)phenoxy)benzonitrile] | < 1
11 | Fc1sc(Nc2ccc(Oc3ccc(Cl)cc3)c(C(F)(F)F)c2)nc1-c1cccnc1 [Cmp 97, N-(4-(4-chlorophenoxy)-3-(trifluoromethyl)phenyl)-5-fluoro-4-(pyridin-3-yl)thiazol-2-amine] | < 1
12 | CCc1ccc(Oc2ccc(Nc3nc(-c4cccnc4)c(F)s3)cc2C(F)(F)F)cc1 [Cmp 98, N-(4-(4-ethylphenoxy)-3-(trifluoromethyl)phenyl)-5-fluoro-4-(pyridin-3-yl)thiazol-2-amine] | < 1
13 | N#Cc1ccc(Oc2ccc(Nc3nc(-c4cccnc4)c(F)s3)cc2C(F)(F)F)cc1 [Cmp 99, 4-(4-(5-fluoro-4-(pyridin-3-yl)thiazol-2-ylamino)-2-(trifluoromethyl)phenoxy)benzonitrile] | < 1
14 | CCCCCCCCc1ccc(Nc2nc(-c3ccc(O)nc3)cs2)cc1C(F)(F)F [Cmp 100, 5-(2-(4-octyl-3-(trifluoromethyl)phenylamino)thiazol-4-yl)pyridin-2-ol] | < 1
15 | CCCCCCCCc1ccc(Nc2nc(-c3ccc(O)nc3)c(F)s2)cc1C(F)(F)F [Cmp 101, 5-(5-fluoro-2-(4-octyl-3-(trifluoromethyl)phenylamino)thiazol-4-yl)pyridin-2-ol] | < 1
16 | FC(F)(F)c1ccc(Nc2nc(-c3cccnc3)cs2)cc1Oc1ccccc1 [Cmp 102] | 1 to 10

Row | SMILES | EC50 [µM]
17 | FC(F)(F)c1cc(Nc2nc(-c3cccnc3)cs2)ccc1CCCOc1ccc(Cl)cc1 [Cmp 103, N-(4-(3-(4-chlorophenoxy)propyl)-3-(trifluoromethyl)phenyl)-4-(pyridin-3-yl)thiazol-2-amine] | < 1
18 | Fc1sc(Nc2ccc(CCCOc3ccc(Cl)cc3)c(C(F)(F)F)c2)nc1-c1cccnc1 [Cmp 104, N-(4-(3-(4-chlorophenoxy)propyl)-3-(trifluoromethyl)phenyl)-5-fluoro-4-(pyridin-3-yl)thiazol-2-amine] | < 1
19 | CCCCCCc1ccc(Nc2nc(-c3cccnc3)cs2)cc1C(F)(F)F [Cmp 105, N-(4-hexyl-3-(trifluoromethyl)phenyl)-4-(pyridin-3-yl)thiazol-2-amine] | < 1
20 | CCCCCCCCc1cc2cc(Nc3nc(-c4cccnc4)cs3)ccc2o1 [Cmp 106, N-(2-octylbenzofuran-5-yl)-4-(pyridin-3-yl)thiazol-2-amine] | < 1
21 | Cc1ccc(CCCCOc2ccc(Nc3nc(-c4cccnc4)c(F)s3)cc2C(F)(F)F)cc1 [Cmp 107, 5-fluoro-4-(pyridin-3-yl)-N-(4-(4-p-tolylbutoxy)-3-(trifluoromethyl)phenyl)thiazol-2-amine] | < 1
22 | Fc1sc(Nc2ccc(C(F)(F)F)c(Oc3ccccc3)c2)nc1-c1cccnc1 [Cmp 108, 5-fluoro-N-(3-phenoxy-4-(trifluoromethyl)phenyl)-4-(pyridin-3-yl)thiazol-2-amine] | < 1
23 | Cc1ccc(CCCCOc2ccc(Nc3nc(-c4cccnc4)c(Cl)s3)cc2C(F)(F)F)cc1 [Cmp 109, 5-chloro-4-(pyridin-3-yl)-N-(4-(4-p-tolylbutoxy)-3-(trifluoromethyl)phenyl)thiazol-2-amine] | < 1
24 | CCCCCCCCOc1c(F)cc(Nc2nc(-c3cccnc3)cs2)cc1F [Cmp 110, N-(3,5-difluoro-4-(octyloxy)phenyl)-4-(pyridin-3-yl)thiazol-2-amine] | < 1
25 | CCCCCCCC(=O)c1ccc(Nc2nc(-c3cccnc3)cs2)cc1 [Cmp 111, 1-(4-(4-(pyridin-3-yl)thiazol-2-ylamino)phenyl)octan-1-one] | < 1
26 | CCCCCCc1ccc(Nc2nc(-c3cccnc3)c(F)s2)cc1C(F)(F)F [Cmp 112] | < 1
27 | CCCCCCc1ccc(Nc2nc(-c3cnc(OC)nc3)cs2)cc1C(F)(F)F [Cmp 113, N-(4-hexyl-3-(trifluoromethyl)phenyl)-4-(2-methoxypyrimidin-5-yl)thiazol-2-amine] | < 1
28 | CCCCCCCCc1cc2ccc(Nc3nc(-c4cccnc4)cs3)cc2o1 [Cmp 114, N-(2-octylbenzofuran-6-yl)-4-(pyridin-3-yl)thiazol-2-amine] | < 1
29 | CCCCCCCCc1cc2ccc(Nc3nc(-c4ccc(C)nc4)cs3)cc2o1 [Cmp 115, 4-(6-methylpyridin-3-yl)-N-(2-octylbenzofuran-6-yl)thiazol-2-amine] | < 1
30 | Cc1ccc(OCCCCc2ccc(Nc3nc(-c4cccnc4)c(F)s3)cc2C(F)(F)F)cc1 [Cmp 116, 5-fluoro-4-(pyridin-3-yl)-N-(4-(4-(p-tolyloxy)butyl)-3-(trifluoromethyl)phenyl)thiazol-2-amine] | < 1
31 | Cc1ccc(OCCCCc2ccc(Nc3nc(-c4cccnc4)cs3)cc2C(F)(F)F)cc1 [Cmp 117, 4-(pyridin-3-yl)-N-(4-(4-(p-tolyloxy)butyl)-3-(trifluoromethyl)phenyl)thiazol-2-amine] | < 1
